These results are taken from PubChem BioAssay AID489035 (Sanford-Burnham Center for Chemical Genomics, 2010).

Active and inactive are the calls of the source. No rule for the calls is given here.

The test system of the test is Jurkat NF-kB reporter, TCR-induced, luciferase luminescence. As to the kind of experiment: inhibitors of TCR-driven NF-kB activation, dose response, Jurkat cells, luminescence (AID 489035).
`O=c1cc(-c2cccc(F)c2)[nH]c2ccccc12`: the IC50 (usually the concentration needed to halve the response being measured) is > 80 µM (inactive).
As to `COc1cccc(OC)c1C1=NCC(=O)Nc2c1oc1ccc(Br)cc21`, the IC50 is > 80 µM (inactive).
`O=c1cc(-c2ccccc2)[nH]c2cc(F)ccc12`: the IC50 was > 80 µM (inactive).
The result for `CC1=C([N+](=O)[O-])C(c2ccccc2)C2=C(N1)c1ccccc1C2=O` (configuration not stated) reads 30.3 µM (inactive); that for `Cc1cc(NC(=O)COC(=O)c2ccc(S(=O)(=O)N3CCCc4ccccc43)cc2)no1`, > 80 µM (inactive); that for `C=CCn1c(C)cc(C2=NNC(=NCC)SC2)c1C`, < 0.16 µM.
The value for `O=C(Nc1cccc(C(F)(F)F)c1)c1sc(Cl)nc1C(F)(F)F` was 0.59 µM; that for `COc1ccccc1C(=O)Nc1nc2ccccc2s1` was 0.77 µM; that for `CCOc1ccccc1N1CC(O)=C(c2nc3ccccc3s2)C1=N` was 26.7 µM (inactive).
With `Cc1cc(C)cc(NC(=O)c2cc(C)n(Cc3cccs3)c2C)c1`, the IC50 is 5.13 µM.
As to `O=C(COc1ccc2c(-c3ccccc3)cc(=O)oc2c1)Nc1cccnc1`, the IC50 was > 80 µM (inactive).
For the molecule `COc1ccc(CCNc2cc(N3CCN(C(=O)c4ccccc4F)CC3)ccc2[N+](=O)[O-])cc1OC`, the IC50 is > 80 µM (inactive).
The result for `COc1ccc(C2=NOC(C(=O)NCc3cccs3)C2)cc1OC` (configuration not stated) reads > 80 µM (inactive); that for `COc1ccccc1N1CCN(C(=O)c2cc(=O)c3cc(C)cc(C)c3o2)CC1`, 2.79 µM.
The result for `CCn1c(C)cc(C(=O)CN2C(=O)c3ccccc3S2(=O)=O)c1C` reads 1.68 µM.
The result for `CNC[C@H](CC1CCCCC1)NC[C@H](Cc1ccccc1)NCCC12CC3CC(CC(C3)C1)C2` reads 2.42 µM.
For `O=C(c1cn(Cc2ccccc2)nc1-c1ccccc1)N1CCN(c2ccccn2)CC1`, the IC50 is > 80 µM (inactive).
The value for `N=c1ccn(CC(=O)c2ccc(-c3ccccc3)cc2)cc1` was 54.5 µM (inactive); that for `COc1ccc(NC(=O)Cn2nnc(-c3ccccc3NS(=O)(=O)c3ccc(OC)cc3)n2)cc1` was > 80 µM (inactive); that for `O=C1C=CC(O)(c2cc(=O)c3c(O)cc(O)cc3o2)C=C1` was 2.21 µM.
The result for `COc1cccc(-c2cc(=O)c3cc(NC(=O)c4ccccc4)ccc3[nH]2)c1` reads > 80 µM (inactive).
For the molecule `CC(=O)N(C)C1=C(N2CCOCC2)C(=O)c2ccccc2C1=O`, the IC50 was 9.87 µM.
With `CCOc1cc(C(=O)N/N=C/C(Br)=C/c2ccccc2)cc(OCC)c1OCC`, the IC50 is > 80 µM (inactive).
Turning to `CCOC(=O)c1ccccc1NC(=O)Cn1c(-c2nonc2N)nc2ccccc21`, the IC50 is > 80 µM (inactive).
Regarding `CCC(=O)NC(c1cccs1)c1ccc2cccnc2c1O` (configuration not stated), the IC50 is 60.4 µM (inactive).
The result for `COC(=O)c1ccccc1NC1=C/C(=N\S(=O)(=O)c2cccs2)c2ccccc2C1=O` reads 2.91 µM.
In the case of `COc1ccccc1NC(=O)Cn1nnc(C(=O)NCc2cccs2)c1N`, the IC50 is > 80 µM (inactive).
With `O=c1oc2ccccc2cc1-c1cn(-c2ccccc2)c(=S)[nH]1`, the IC50 is 13 µM.
The result for `COc1ccc(S(=O)(=O)Nc2cccc(-c3ccc4nncn4n3)c2)cc1F` reads > 80 µM (inactive); that for `Cn1c(SC2=CS(=O)(=O)c3ccccc32)nc2ccccc21`, 1.46 µM.
The result for `Cn1nc(CC(=O)Nc2ccc(N3CCN(C(=O)OC(C)(C)C)CC3)cc2)c2ccccc2c1=O` reads > 80 µM (inactive); that for `Cc1cccc(N2CCN(C(=O)c3ccc(S(=O)(=O)N(C)c4ccccc4)cc3)CC2)c1C`, > 80 µM (inactive).
The value for `Cc1cnc(NC(=O)c2ccc3c(c2)OCCO3)s1` was 1 µM; that for `O=C(Nc1ccc([N+](=O)[O-])cc1)Nc1ccon1` was > 80 µM (inactive).
As for `COc1ccc(NS(=O)(=O)c2ccc(-c3cnc(C4CC4)o3)cc2)cc1OC`, the IC50 is > 80 µM (inactive).
The value for `CCc1cc(C(=O)NC2CCCc3c2cnn3-c2cccc(C)c2C)n(C)n1` (configuration not stated) was > 80 µM (inactive).
With `CCC1CCCCN1C(=O)c1cc(COc2ccc3ncccc3c2)on1` (configuration not stated), the IC50 was > 80 µM (inactive).
The value for `CCCCN1/C(=C/c2ccc3ccccc3[n+]2CC)Sc2ccccc21` was > 80 µM (inactive).
The value for `O=C(Nc1ccc(S(=O)(=O)N2CCOCC2)cc1)c1ccc(CN2CCc3ccccc3C2)cc1` was 12.7 µM.
As for `CCCCCc1ccc(OCCCC[n+]2ccc(C)cc2)c(CCCCC)c1`, the IC50 was 8.23 µM.
The value for `C[C@]12CC[C@@H]3c4cc(O)c(O)cc4CC[C@H]3[C@@H]1CC[C@@H]2O` was 4.76 µM; that for `Cc1ccc(C(=O)Nc2cc3ccccc3oc2=O)cc1` was 0.32 µM.
The value for `C[C@@H]1O[C@@H](O[C@H]2C[C@@H](O)[C@]3(CO)[C@@H]4C(CC[C@]3(O)C2)[C@@]2(O)CC[C@H](C3COC(=O)C3)[C@@]2(C)C[C@H]4O)[C@H](O)[C@H](O)[C@H]1O` (some centres not stated) was 23.3 µM (inactive); that for `CCOCCOC(=O)c1[nH]c2c(c1C)C(=O)CC(c1cccs1)C2` (configuration not stated) was > 80 µM (inactive).
In the case of `Oc1ccc2ccccc2c1/C=N/Nc1nnc(-c2ncc[nH]2)c2ccccc12`, the IC50 was > 80 µM (inactive).
For `Cc1ccc(NC(=O)Nc2ccnc(-c3cccnc3)n2)cc1`, the IC50 is 0.84 µM.
The value for `COc1ccc(CCNc2nnc(Sc3nnnn3-c3ccccc3)s2)cc1OC` was 10.6 µM.
The value for `O=C(NCc1cccs1)C1CCN(c2ccc(S(=O)(=O)N3CCOCC3)cc2Cl)CC1` was 25.6 µM (inactive); that for `Cc1ccc(/C=C/c2ccc(N(C)C)cc2)[n+](C)c1` was > 80 µM (inactive).
On to `COc1cccc(N2CCN(C(=O)c3ccc(CS(=O)c4ccccc4Cl)o3)CC2)c1` (configuration not stated), for which the IC50 is > 80 µM (inactive).
The result for `COc1cccc(/C=N/NC(=O)c2[nH]nc3c2CCc2ccccc2-3)c1O` reads 59.5 µM (inactive).
The value for `CCOc1ccc(N/C(N)=N/c2nc(CSc3nnc(C)s3)cc(=O)[nH]2)cc1` was > 80 µM (inactive); that for `COC(=O)c1[nH]c2ccc(Br)cc2c1NC(=O)CN1CCN(C2CCCCC2)CC1` was 4.56 µM.
Regarding `C=CCn1c(SCc2c(C)noc2C)nc2ccccc2c1=O`, the IC50 is 23 µM (inactive).
For `C=C(C)COc1ccc(-c2[nH]ncc2-c2ccc(OC)c(OC)c2)c(O)c1`, the IC50 is 13.6 µM.
The value for `CC(=O)NC(c1ccc(C(C)C)cc1)c1ccc2cccnc2c1O` (configuration not stated) was 3.06 µM; that for `C=C1C(O)[C@@H]2O[C@]3(CC[C@H](/C=C/C(C)[C@@H]4CC(C)=CC5(O[C@H](C[C@@](C)(O)CO)CCC5O)O4)O3)CC[C@H]2O[C@@H]1C(O)CC(C)[C@H]1OC2(CCCCO2)CCC1C` (some centres not stated) was 0.29 µM.
The value for `COc1ccc(CCN2C(=O)C3C4C=CC(C3C2=O)C2C(=O)N(CCc3ccc(OC)c(OC)c3)C(=O)C42)cc1OC` (configuration not stated) was > 80 µM (inactive); that for `COc1ccc(NC(=O)/C(Cl)=C(/Cl)S(=O)Cc2ccccc2)cn1` (configuration not stated) was 0.26 µM; that for `O=C(c1ccccc1)c1cc([N+](=O)[O-])ccc1N1CCOCC1` was > 80 µM (inactive).
Consider `COc1ccc(C[C@H](N)C(=O)N[C@H]2[C@@H](O)[C@H](n3cnc4c(N(C)C)ncnc43)O[C@@H]2CO)cc1`, for which the IC50 was 0.96 µM.
Turning to `COc1ccccc1N1CCN(C(=O)c2ccc(-c3ccc(Cl)cc3)o2)CC1`, the IC50 is 34.6 µM (inactive).
The result for `CN(Cc1ccccc1)C1=CC(=[N+]2CCCC2)CC(C)(C)C1` reads 55.1 µM (inactive).
The value for `COc1cc(Nc2ccc(C)cc2)c([N+](=O)[O-])nc1[N+](=O)[O-]` was > 80 µM (inactive).
On to `Cc1nc2c(=O)n(C)c(=O)nc-2n(C)n1`, for which the IC50 was 0.47 µM.
The value for `CCOc1ccc(Nc2cc(C)nc(-n3nc(C)cc3C)n2)cc1` was > 80 µM (inactive).
In the case of `O=C(Nc1ccncc1)c1ccc(Cl)c(S(=O)(=O)N2CCc3ccccc32)c1`, the IC50 was > 80 µM (inactive).
The value for `CCCC1=Nc2cc(C(=O)NCCCOCC)ccc2Sc2ccccc21` was 24 µM (inactive); that for `Cc1cc(C)cc(C(=O)N2CC(=O)Nc3ccccc32)c1` was 15.7 µM.
As to `COc1cccc(-c2cc(=O)c3cc(NC(=O)c4ccc(N(C)C)cc4)ccc3[nH]2)c1`, the IC50 was 6.22 µM.
The value for `Cc1cc(NC(=O)CSc2nc3ccccc3c(=O)n2C2CCCC2)no1` was > 80 µM (inactive); that for `CCOC(=O)N/N=C/c1c(C)nn(-c2cccc(C(F)(F)F)c2)c1Cl` was > 80 µM (inactive); that for `CCCCCOC(=O)c1[nH]c2c(c1C)C(=O)CC(c1ccco1)C2` (configuration not stated) was > 80 µM (inactive).
`COc1cc2c(c(OC)c1OC)-c1ccc(O)cc1[C@@H](NC(C)=O)CC2`: the IC50 was > 80 µM (inactive).
The result for `COc1cccc(-c2cc(C(=O)Nc3cc(C)n(Cc4ccc(Cl)cc4)n3)no2)c1` reads > 80 µM (inactive); that for `CC(C)(C)c1cc(C=C(C#N)C#N)cc(C(C)(C)C)c1O`, > 80 µM (inactive).
Turning to `CC[C@@]1(O)C(=O)OCc2c1cc1n(c2=O)Cc2cc3c(CN(C)C)c(O)ccc3nc2-1`, the IC50 was 0.2 µM.
With `O=C(Nc1ccc(N2CCN(C(=O)c3ccc(Cl)cc3)CC2)cc1)c1ccc2c(c1)OCCO2`, the IC50 is > 80 µM (inactive).
`CN1/C(=C\C(=O)C[n+]2ccc3ccccc3c2)C(C)(C)c2ccccc21`: the IC50 is 38 µM (inactive).
The value for `O=C(Nc1nc2ccc(S(=O)(=O)N3CCCC3)cc2s1)C1CCCCC1` was > 80 µM (inactive).
The result for `CCc1ccc(/C=N/NC(=O)c2cc(C3CC3)nc3ccccc23)s1` reads 20 µM (inactive).
The result for `CCCSc1nnc(Sc2nnnn2-c2ccccc2)s1` reads 2.09 µM; that for `COc1ccc(C(=O)NNC(=O)c2ccccn2)cc1`, 1.93 µM.
Turning to `CC1(C)CC(N2CCN(C(c3ccccc3)c3ccccc3)CC2)=CC(=[N+]2CCCCC2)C1`, the IC50 is 15.9 µM.
In the case of `Cn1ncnc2c(=O)n(C)c(=O)nc1-2`, the IC50 is 0.51 µM.
The result for `Cc1ccc2cccc(NS(=O)(=O)c3ccccc3)c2n1` reads 0.98 µM; that for `Cc1ccc(S(=O)(=O)Nc2ccccc2-c2ccccc2)cc1`, 22.6 µM (inactive).
